For series [1], the system named is A549. Put plainly: Induction of CYP1A1 level in human A549 cells at 10 uM after 1 hr using Hoechst staining by fluorogenic assay. The format is functional, cell-based.
Series [2] relates to A549. Description: Induction of CYP1A1 level in human A549 cells at 10 uM after 1 hr using Hoechst staining by fluorogenic assay in presence of CYP1A1 inducer TCDD. The format is functional, cell-based.
Series [3] concerns A549. Put plainly: Inhibition of CYP1A1 level in human A549 cells at 10 uM after 1 hr using Hoechst staining by fluorogenic assay in presence of CYP1A1 inducer TCDD and CYP1A1 inhibitior resveratrol. The format is functional, cell-based.
Substrate in series [4]: CCOc1cc(C)cc(C)c1C(C)(C)CC(=O)Nc1ccc2c(c1)Oc1cc(NC(=O)N3CCOCC3)ccc1C21Oc2ccccc2C1=O
Description: Activity of human CYP1A1 by fluorogenic assay. The format is ADME.

Calls of active or inactive are those of the source. No cut-off for these calls is given here.

Take `CCOc1cc(C)cc(C)c1C(C)(C)CC(=O)Nc1ccc2c(c1)Oc1cc(NC(=O)N3CCOCC3)ccc1C21OC(=O)c2ccccc21` (stereo not given): the outcome in the series with A549 [1], with A549 [2] and with A549 [3] was Active.

B1: Cytochrome P450 1A1 (Homo sapiens) (protein)
chain: MLFPISMSATEFLLASVIFCLVFWVIRASRPQVPKGLKNPPGPWGWPLIGHMLTLGKNPHLALSRMSQQYGDVLQIRIGSTPVVVLSGLDTIRQALVRQGDDFKGRPDLYTFTLISNGQSMSFSPDSGPVWAARRRLAQNGLKSFSIASDPASSTSCYLEEHVSKEAEVLISTLQELMAGPGHFNPYRYVVVSVTNVICAICFGRRYDHNHQELLSLVNLNNNFGEVVGSGNPADFIPILRYLPNPSLNAFKDLNEKFYSFMQKMVKEHYKTFEKGHIRDITDSLIEHCQEKQLDENANVQLSDEKIINIVLDLFGAGFDTVTTAISWSLMYLVMNPRVQRKIQEELDTVIGRSRRPRLSDRSHLPYMEAFILETFRHSSFVPFTIPHSTTRDTSLKGFYIPKGRCVFVNQWQINHDQKLWVNPSEFLPERFLTPDGAIDKVLSEKVIIFGMGKRKCIGETIARWEVFLFLAILLQRVEFSVPLGVKVDMTPIYGLTMKHACCEHFQMQLRS
Take B1: in series [4], the Km is 0.09 µM and the kcat/Km amounted to 8800 M⁻¹ s⁻¹.

For the origin of these results see ChEMBL document CHEMBL1154494, “A highly sensitive fluorogenic probe for cytochrome P450 activity in live cells” (Bioorg Med Chem Lett, 2008).
